Measured values as given in patent publication US20220220155A1, “VASCULAR C[…] USE THEREOF” (priority 2019, published 2022).
Where a SMILES comes first, the peptide text is derived from it. [ ]: non-standard residue; d: D form.

Columns and labels:
SMase-treated LDL = target: T1, SMase-treated LDL (Homo sapiens, UniProt P04114); test: Anti-LDL aggregation assay, turbidimetry, aggregation induced by sphingomyelinase (SMase); format: biochemical; conditions: peptide 10 μM (compound/ApoB-100 4.7/1), human LDL 1.44 mg/mL, 40 U/L Bacillus cereus SMase, 18 hours, 37° C., absorbance at 405 nm, Equation I
T1 construct: from tissue; host or cells: pooled normolipemic human plasma
Experimental: (§1) The efficacy of the novel compounds to inhibit the aggregation of LDL has been tested in two parallel turbidimetric assays differing from each other only in the enzyme used to induce LDL aggregation, namely sphingomyelinase (SMase) and phospholipase A2 (PLA2), respectively.
(§2) Human LDL (d1.019-d1.063 g/mL) were obtained from pooled normolipemic human plasma by sequential ultracentrifugation in a KBr density gradient. Briefly, VLDL were first discarded after spinning plasma at 36.000 rpm for 18 h at 4° C., VLDL-free plasma was layered with 1.063 g/mL KBr solution and centrifuged at 36,000 rpm for 18 h at 4° C. LDL were dialyzed against 0.02 M Tris, 0.15 M NaCl, 1 mM EDTA, pH 7.5 for 18 hours, and then against normal saline for 2 hours. Finally, isolated LDL were filter-sterilized. Protein concentration was determined using a colorimetric assay.
(§3) Human LDL particles (1.44 mg/mL) were incubated with 40 U/L of Bacillus cereus SMase or with 50 μg/L of type II secretory PLA2 from honey bee venom in 20 mM Tris buffer (pH 7.0) containing 150 mM NaCl, 2 mM CaCl2), and MgCl2 at 37° C. LDL incubation with SMase and PLA2 was performed at peptide concentration of 10 μM (ratio compound/ApoB-100: 4.7/1) for 18 hours. LDL lipolysis was stopped by addition of EDTA (final concentration 10 mM).
(§4) The efficiency of each novel compound to inhibit LDL aggregation induced by SMase and PLA2 was estimated by turbidimetry measuring the absorbance at a wavelength of 405 nm. Thus, the inhibitory activity was calculated according to Equation I.
(§5) a corresponds to the absorbance value in the presence of nLDL particles, LDL aggregating enzyme (i.e., SMase or PLA2) and test compound;
(§6) b corresponds to the absorbance value in the presence of only nLDL particles;
(§7) c corresponds to the absorbance value in the presence of nLDL particles and LDL aggregating enzyme (i.e., SMase or PLA2);

PLA2-treated LDL = target: T2, PLA2-treated LDL (Homo sapiens, UniProt P04114); test: Anti-LDL aggregation assay, turbidimetry, aggregation induced by phospholipase A2 (PLA2); format: biochemical; conditions: 18 h, read-out: Inhibition of LDL aggregation, PLA2-treated LDL
T2 construct: from tissue; host or cells: pooled normolipemic human plasma
Experimental: as §1, §2, §3, §4, §5, §6, §7

[1] = test system: human coronary vascular smooth muscle cells (hcVSMC); test: Inhibition of intracellular cholesterol accumulation induced by SMase (CE/FC ratio); format: cell-based; conditions: hcVSMC exposed 2 hours to SMase-LDL treated overnight with peptide 10 μM; CE and FC by thin layer chromatography and densitometry, Equation II
Experimental: Thus, the inhibitory effect of the novel compounds on the intracellular cholesterol accumulation has been analysed in terms of decrease in the ratio of intracellular CE and free cholesterol FC content of hcVSMC exposed to LDL and SMase-LDL.
All cells used were from a unique batch in order to prevent variability from cell origin. Cell quiescence was induced by maintaining the cell culture for 24 hours in a medium. Serum-deprived cells between passages 4 and 8 were used for experiments. VSMCs at these passages appeared as a relatively homogeneous population, showing a hill-and-valley confluence pattern. Cell monolayers were grown in vascular cell basal medium supplemented with vascular smooth muscle growth kit components. Quiescent cells were 2-hours exposed to LDL treated with SMase (in absence or presence of peptides) overnight at a concentration of 10 μM previously checked its aggregation by a turbidimetry test. Cells were then either collected for lipid extraction or processed for confocal microscopy analysis.
Following the lipoprotein incubation period, hcVSMC were exhaustively washed (twice with PBS, twice with PBS supplemented with 1% BSA, and once with PBS supplemented with both 1% BSA and 100 U/mL heparin), before they were harvested into 1 mL of 0.15 M NaOH. Lipids were extracted using the Bligh and Dyer method. The lipid extract was redissolved in dichloromethane, applied to silica gel plates, and separated by thin layer chromatography. A mixture of cholesterol and cholesterol palmitate, were also run as standards. Heptane or a solvent combination of heptane/diethylether/acetic acid (74:21:4, v/v/v) were used as chromatographic mobile phase. After lipid separation, the plates were dried and stained as previously reported. Finally, the spots corresponding to cholesteryl ester (CE) and free cholesterol (FC) were quantitated by densitometry.
The efficacy of each novel compound to decrease the ratio of intracellular cholesteryl esters (CE) and free cholesterol (FC) content of hcVSMC exposed to LDL and SMase-LDL was calculated according to Equation II.
a corresponds to the CE/FC ratio in hcVSMC exposed to SMase-LDL and in the presence of the test compound.
b corresponds to the CE/FC ratio in hcVSMC exposed to nLDL in the absence of the test compound.
c corresponds to the CE/FC ratio in hcVSMC exposed to SMase-LDL in the absence of the test compound.

T2 sequence (P04114 28-4563): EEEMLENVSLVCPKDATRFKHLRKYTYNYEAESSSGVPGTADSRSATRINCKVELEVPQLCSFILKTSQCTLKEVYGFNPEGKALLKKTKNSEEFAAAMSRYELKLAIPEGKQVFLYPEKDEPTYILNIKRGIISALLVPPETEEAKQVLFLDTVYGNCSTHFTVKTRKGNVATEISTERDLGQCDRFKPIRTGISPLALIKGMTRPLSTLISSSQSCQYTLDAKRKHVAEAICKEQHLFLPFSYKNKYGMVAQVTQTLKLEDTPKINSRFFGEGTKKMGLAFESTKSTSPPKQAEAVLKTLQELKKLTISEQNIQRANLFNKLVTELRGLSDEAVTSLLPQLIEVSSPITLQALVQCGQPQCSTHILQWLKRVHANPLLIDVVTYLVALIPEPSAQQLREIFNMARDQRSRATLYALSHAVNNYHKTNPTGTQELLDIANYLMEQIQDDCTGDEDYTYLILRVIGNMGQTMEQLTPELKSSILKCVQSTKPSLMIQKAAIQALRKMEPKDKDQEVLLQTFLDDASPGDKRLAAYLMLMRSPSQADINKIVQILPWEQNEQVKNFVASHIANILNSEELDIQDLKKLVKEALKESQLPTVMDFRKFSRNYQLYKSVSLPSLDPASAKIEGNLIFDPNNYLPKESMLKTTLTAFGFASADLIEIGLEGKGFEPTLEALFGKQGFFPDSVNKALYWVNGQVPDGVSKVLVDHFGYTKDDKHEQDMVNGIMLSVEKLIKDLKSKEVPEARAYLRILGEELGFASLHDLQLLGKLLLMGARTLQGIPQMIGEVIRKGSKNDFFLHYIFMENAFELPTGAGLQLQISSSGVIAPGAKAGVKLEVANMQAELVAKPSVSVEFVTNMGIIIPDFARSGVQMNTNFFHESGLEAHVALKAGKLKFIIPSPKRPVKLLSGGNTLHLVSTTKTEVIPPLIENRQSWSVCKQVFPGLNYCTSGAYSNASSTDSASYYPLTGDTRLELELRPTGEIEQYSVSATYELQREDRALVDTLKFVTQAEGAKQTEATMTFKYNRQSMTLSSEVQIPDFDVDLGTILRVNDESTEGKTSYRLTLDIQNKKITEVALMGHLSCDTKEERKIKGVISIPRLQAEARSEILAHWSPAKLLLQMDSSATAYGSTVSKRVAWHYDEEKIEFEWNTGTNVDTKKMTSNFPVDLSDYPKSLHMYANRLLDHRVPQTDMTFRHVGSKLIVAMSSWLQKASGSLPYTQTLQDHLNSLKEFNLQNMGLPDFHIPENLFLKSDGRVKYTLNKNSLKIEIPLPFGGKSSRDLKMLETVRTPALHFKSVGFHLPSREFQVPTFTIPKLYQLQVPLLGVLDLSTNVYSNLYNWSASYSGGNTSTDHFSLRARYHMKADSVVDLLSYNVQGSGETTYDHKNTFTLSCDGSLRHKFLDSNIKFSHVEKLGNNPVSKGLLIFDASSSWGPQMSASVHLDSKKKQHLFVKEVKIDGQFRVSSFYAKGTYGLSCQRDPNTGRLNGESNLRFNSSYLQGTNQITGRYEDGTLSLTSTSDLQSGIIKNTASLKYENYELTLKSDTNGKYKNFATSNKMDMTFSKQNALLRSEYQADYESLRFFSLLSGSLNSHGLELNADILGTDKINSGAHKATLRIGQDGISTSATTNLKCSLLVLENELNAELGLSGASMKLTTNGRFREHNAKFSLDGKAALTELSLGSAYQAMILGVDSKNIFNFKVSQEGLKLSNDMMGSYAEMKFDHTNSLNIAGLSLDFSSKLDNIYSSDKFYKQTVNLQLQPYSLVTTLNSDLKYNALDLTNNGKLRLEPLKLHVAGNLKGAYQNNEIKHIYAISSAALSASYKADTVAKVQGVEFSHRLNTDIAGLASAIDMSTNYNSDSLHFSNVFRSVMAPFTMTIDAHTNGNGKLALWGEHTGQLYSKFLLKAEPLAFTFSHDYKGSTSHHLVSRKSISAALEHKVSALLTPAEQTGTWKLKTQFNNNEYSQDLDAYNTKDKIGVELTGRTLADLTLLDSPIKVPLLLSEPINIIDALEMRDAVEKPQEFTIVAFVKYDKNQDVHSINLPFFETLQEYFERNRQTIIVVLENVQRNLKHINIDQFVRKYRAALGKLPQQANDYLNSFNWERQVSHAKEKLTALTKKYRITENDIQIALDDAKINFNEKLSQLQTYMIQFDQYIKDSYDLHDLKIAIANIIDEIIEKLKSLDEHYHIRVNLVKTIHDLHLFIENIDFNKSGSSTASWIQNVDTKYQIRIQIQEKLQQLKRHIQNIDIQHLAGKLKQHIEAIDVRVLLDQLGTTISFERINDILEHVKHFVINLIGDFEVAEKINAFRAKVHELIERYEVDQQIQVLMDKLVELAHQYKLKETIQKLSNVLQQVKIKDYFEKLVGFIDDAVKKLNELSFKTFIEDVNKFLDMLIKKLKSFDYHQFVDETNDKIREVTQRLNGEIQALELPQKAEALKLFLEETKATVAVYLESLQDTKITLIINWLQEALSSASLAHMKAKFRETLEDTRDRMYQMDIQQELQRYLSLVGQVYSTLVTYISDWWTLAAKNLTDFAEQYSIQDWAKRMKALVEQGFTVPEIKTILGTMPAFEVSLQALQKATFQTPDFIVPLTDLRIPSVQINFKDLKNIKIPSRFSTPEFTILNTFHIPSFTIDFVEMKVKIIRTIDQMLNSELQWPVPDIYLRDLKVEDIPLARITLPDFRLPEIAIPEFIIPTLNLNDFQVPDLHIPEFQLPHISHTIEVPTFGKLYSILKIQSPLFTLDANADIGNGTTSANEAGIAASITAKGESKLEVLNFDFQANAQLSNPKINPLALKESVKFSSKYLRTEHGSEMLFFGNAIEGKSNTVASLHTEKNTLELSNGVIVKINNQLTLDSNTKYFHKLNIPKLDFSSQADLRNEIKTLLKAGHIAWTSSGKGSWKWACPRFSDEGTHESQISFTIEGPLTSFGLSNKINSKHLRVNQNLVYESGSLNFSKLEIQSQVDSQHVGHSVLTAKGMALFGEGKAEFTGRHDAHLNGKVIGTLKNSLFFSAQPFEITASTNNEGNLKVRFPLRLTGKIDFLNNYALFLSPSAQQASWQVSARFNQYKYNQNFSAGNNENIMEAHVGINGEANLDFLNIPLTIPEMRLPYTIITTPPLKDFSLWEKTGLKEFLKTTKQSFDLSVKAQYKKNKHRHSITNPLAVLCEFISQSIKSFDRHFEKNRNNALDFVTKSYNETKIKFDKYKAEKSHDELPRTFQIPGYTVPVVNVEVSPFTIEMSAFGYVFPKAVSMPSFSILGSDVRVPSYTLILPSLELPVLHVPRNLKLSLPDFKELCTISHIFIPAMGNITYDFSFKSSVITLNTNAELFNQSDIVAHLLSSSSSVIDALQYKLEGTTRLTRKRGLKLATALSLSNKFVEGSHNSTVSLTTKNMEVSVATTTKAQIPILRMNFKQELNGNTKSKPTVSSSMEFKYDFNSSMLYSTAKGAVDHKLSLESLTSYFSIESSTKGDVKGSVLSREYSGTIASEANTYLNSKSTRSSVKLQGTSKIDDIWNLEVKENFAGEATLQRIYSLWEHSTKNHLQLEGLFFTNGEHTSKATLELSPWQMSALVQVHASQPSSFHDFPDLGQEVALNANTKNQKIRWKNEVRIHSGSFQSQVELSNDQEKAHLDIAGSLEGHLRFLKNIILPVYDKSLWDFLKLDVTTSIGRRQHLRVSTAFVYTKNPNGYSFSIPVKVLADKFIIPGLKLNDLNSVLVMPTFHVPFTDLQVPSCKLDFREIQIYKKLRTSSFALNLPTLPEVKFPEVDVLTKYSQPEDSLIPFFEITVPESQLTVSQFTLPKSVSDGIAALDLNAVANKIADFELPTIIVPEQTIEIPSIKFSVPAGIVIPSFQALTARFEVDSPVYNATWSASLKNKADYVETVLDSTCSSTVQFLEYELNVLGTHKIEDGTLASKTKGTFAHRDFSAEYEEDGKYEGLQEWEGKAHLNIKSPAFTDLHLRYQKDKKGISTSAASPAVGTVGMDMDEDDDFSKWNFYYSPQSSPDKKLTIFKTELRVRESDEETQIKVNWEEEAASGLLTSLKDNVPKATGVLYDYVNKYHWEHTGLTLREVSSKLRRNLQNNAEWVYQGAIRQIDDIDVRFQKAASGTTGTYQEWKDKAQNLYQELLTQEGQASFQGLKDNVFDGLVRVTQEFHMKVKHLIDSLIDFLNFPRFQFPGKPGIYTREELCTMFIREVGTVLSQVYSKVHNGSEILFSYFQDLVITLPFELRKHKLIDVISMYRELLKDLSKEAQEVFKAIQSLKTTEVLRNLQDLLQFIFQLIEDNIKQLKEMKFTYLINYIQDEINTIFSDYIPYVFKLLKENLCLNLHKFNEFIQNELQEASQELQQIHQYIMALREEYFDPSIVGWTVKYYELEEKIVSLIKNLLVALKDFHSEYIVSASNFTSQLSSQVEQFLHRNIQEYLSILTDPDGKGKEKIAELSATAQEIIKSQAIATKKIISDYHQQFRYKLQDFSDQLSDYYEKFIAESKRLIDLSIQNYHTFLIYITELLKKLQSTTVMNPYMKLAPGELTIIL
T1 sequence (P04114 28-4563): as above

SMILES | inhibition at 10 µM (SMase-treated LDL) | inhibition at 10 µM (PLA2-treated LDL) | CE/FC ratio decrease (%) [1]
CC(=O)N[C@H](CC(=O)O)C(=O)N[C@H](CO)C(=O)N[C@H](CCC(=O)O)C(=O)N[C@H](CC(=O)O)C(=O)N[C@H](CC(N)=O)C(=O)N[C@H](CO)C(=O)N[C@H](CC(=O)O)C(=O)N[C@H](CCC(=O)O)C(=O)N[C@H](CCC(=O)O)C(=O)N[C@H](C)C(N)=O [Example 15, Ac-D-Asp-D-Ser-D-Glu-D-Asp-D-Asn-D-Ser-D-Asp-D-Glu-D-Glu-D-Ala-NH2] (Ac-[dD][dS][dE][dD][dN][dS][dD][dE][dE][dA]-NH2) | 96% | 95.9% | 90.2%
CC(=O)N[C@H](CC(=O)O)C(=O)N[C@H](CO)C(=O)N[C@H](CCC(=O)O)C(=O)N[C@H](CC(=O)O)C(=O)N[C@H](CC(N)=O)C(=O)N[C@H](CCCCN)C(=O)N[C@H](CC(=O)O)C(=O)N[C@H](CCC(=O)O)C(=O)N[C@H](CCC(=O)O)C(=O)N[C@H](CC(N)=O)C(N)=O [Example 18, Ac-D-Asp-D-Ser-D-Glu-D-Asp-D-Asn-D-Lys-D-Asp-D-Glu-D-Glu-D-Asn-NH2] (Ac-[dD][dS][dE][dD][dN][dK][dD][dE][dE][dN]-NH2) | 85.1% | 55.1% | 47.6%
CC(=O)N[C@H](CC(=O)O)C(=O)N[C@H](C)C(=O)N[C@H](CCC(=O)O)C(=O)N[C@H](CC(=O)O)C(=O)N[C@H](CC(N)=O)C(=O)N[C@H](C)C(=O)N[C@H](CC(=O)O)C(=O)N[C@H](CCC(=O)O)C(=O)N[C@H](CCC(=O)O)C(=O)N[C@H](C)C(N)=O [Example 17, Ac-D-Asp-D-Ala-D-Glu-D-Asp-D-Asn-D-Ala-D-Asp-D-Glu-D-Glu-D-Ala-NH2] (Ac-[dD][dA][dE][dD][dN][dA][dD][dE][dE][dA]-NH2) | 95.2% | 66.1% | 67.4%
CC(=O)N[C@H](CO)C(=O)N[C@H](CCC(=O)O)C(=O)N[C@H](CC(=O)O)C(=O)N[C@H](CC(N)=O)C(=O)N[C@H](CCCCN)C(=O)N[C@H](CC(=O)O)C(=O)N[C@H](CCC(=O)O)C(=O)N[C@H](CCC(=O)O)C(=O)N[C@H](CC(N)=O)C(N)=O [Example 9, Ac-D-Ser-D-Glu-D-Asp-D-Asn-D-Lys-D-Asp-D-Glu-D-Glu-D-Asn-NH2] (Ac-[dS][dE][dD][dN][dK][dD][dE][dE][dN]-NH2) | 91% | 36.4% | 58.8%
CC(=O)N[C@H](CC(N)=O)C(=O)N[C@H](CC(=O)O)C(=O)N[C@H](CO)C(=O)N[C@H](CCC(=O)O)C(=O)N[C@H](CC(=O)O)C(=O)N[C@H](CC(N)=O)C(=O)N[C@H](CO)C(=O)N[C@H](CC(=O)O)C(=O)N[C@H](CCC(=O)O)C(=O)N[C@H](CCC(=O)O)C(=O)N[C@H](CC(N)=O)C(N)=O [Example 11, Ac-D-Asn-D-Asp-D-Ser-D-Glu-D-Asp-D-Asn-D-Ser-D-Asp-D-Glu-D-Glu-D-Asn-NH2] (Ac-[dN][dD][dS][dE][dD][dN][dS][dD][dE][dE][dN]-NH2) | 94.8% | 95.2% | 76.5%
CC(=O)N[C@H](CO)C(=O)N[C@H](CCC(=O)O)C(=O)N[C@H](CC(=O)O)C(=O)N[C@H](CC(N)=O)C(=O)N[C@H](CCCNC(=N)N)C(=O)N[C@H](CC(=O)O)C(=O)N[C@H](CCC(=O)O)C(=O)N[C@H](CCC(=O)O)C(=O)N[C@H](CC(C)C)C(N)=O [Example 7, Ac-D-Ser-D-Glu-D-Asp-D-Asn-D-Arg-D-Asp-D-Glu-D-Glu-D-Leu-NH2] (Ac-[dS][dE][dD][dN][dR][dD][dE][dE][dL]-NH2) | 44.7% | -1.9% | –
CC(=O)N[C@H](CC(=O)O)C(=O)N[C@H](CO)C(=O)N[C@H](CCC(=O)O)C(=O)N[C@H](CC(=O)O)C(=O)N[C@H](CC(N)=O)C(=O)N[C@H](CO)C(=O)N[C@H](CC(=O)O)C(=O)N[C@H](CCC(=O)O)C(=O)N[C@H](CCC(=O)O)C(=O)N[C@H](CC(N)=O)C(N)=O [Example 12, Ac-D-Asp-D-Ser-D-Glu-D-Asp-D-Asn-D-Ser-D-Asp-D-Glu-D-Glu-D-Asn-NH2] (Ac-[dD][dS][dE][dD][dN][dS][dD][dE][dE][dN]-NH2) | 93.3% | 94.3% | 76.5%
CC(=O)N[C@H](CC(=O)O)C(=O)N[C@H](CC(N)=O)C(=O)N[C@H](CC(=O)O)C(=O)N[C@H](CO)C(=O)N[C@H](CCC(=O)O)C(=O)N[C@H](CC(=O)O)C(=O)N[C@H](CC(N)=O)C(=O)N[C@H](CO)C(=O)N[C@H](CC(=O)O)C(=O)N[C@H](CCC(=O)O)C(=O)N[C@H](CCC(=O)O)C(=O)N[C@H](CC(N)=O)C(N)=O [Example 10, Ac-D-Asp-D-Asn-D-Asp-D-Ser-D-Glu-D-Asp-D-Asn-D-Ser-D-Asp-D-Glu-D-Glu-D-Asn-NH2] (Ac-[dD][dN][dD][dS][dE][dD][dN][dS][dD][dE][dE][dN]-NH2) | 96% | 94% | 78.4%
CC(=O)N[C@H](CO)C(=O)N[C@H](CCC(=O)O)C(=O)N[C@H](CC(=O)O)C(=O)N[C@H](CC(N)=O)C(=O)N[C@H](CCCNC(=N)N)C(=O)N[C@H](CC(=O)O)C(=O)N[C@H](CCC(=O)O)C(=O)N[C@H](CCC(=O)O)C(=O)N[C@H](Cc1c[nH]c2ccccc12)C(N)=O [Example 8, Ac-D-Ser-D-Glu-D-Asp-D-Asn-D-Arg-D-Asp-D-Glu-D-Glu-D-Trp-NH2] (Ac-[dS][dE][dD][dN][dR][dD][dE][dE][dW]-NH2) | 64.2% | 3.1% | –
CC(=O)N[C@H](CO)C(=O)N[C@H](CCC(=O)O)C(=O)N[C@H](CC(=O)O)C(=O)N[C@H](CC(N)=O)C(=O)N[C@H](C)C(=O)N[C@H](CC(=O)O)C(=O)N[C@H](CCC(=O)O)C(=O)N[C@H](CCC(=O)O)C(=O)N[C@H](C)C(N)=O [Example 3, Ac-D-Ser-D-Glu-D-Asp-D-Asn-D-Ala-D-Asp-D-Glu-D-Glu-D-Ala-NH2] (Ac-[dS][dE][dD][dN][dA][dD][dE][dE][dA]-NH2) | 90% | 37.2% | –
CC(=O)N[C@H](CO)C(=O)N[C@H](CCC(=O)O)C(=O)N[C@H](CC(=O)O)C(=O)N[C@H](CCC(N)=O)C(=O)N[C@H](CO)C(=O)N[C@H](CCC(=O)O)C(=O)N[C@H](CCC(=O)O)C(=O)N[C@H](CCC(=O)O)C(=O)N[C@H](CCC(N)=O)C(N)=O [Example 4, Ac-D-Ser-D-Glu-D-Asp-D-Gln-D-Ser-D-Glu-D-Glu-D-Glu-D-Gln-NH2] (Ac-[dS][dE][dD][dQ][dS][dE][dE][dE][dQ]-NH2) | 91.5% | 32.6% | –
CC(=O)N[C@H](CO)C(=O)N[C@H](CCC(=O)O)C(=O)N[C@H](CC(=O)O)C(=O)N[C@H](CCC(N)=O)C(=O)N[C@H](C)C(=O)N[C@H](CCC(=O)O)C(=O)N[C@H](CCC(=O)O)C(=O)N[C@H](CCC(=O)O)C(=O)N[C@H](C)C(N)=O [Example 5, Ac-D-Ser-D-Glu-D-Asp-D-Gln-D-Ala-D-Glu-D-Glu-D-Glu-D-Ala-NH2] (Ac-[dS][dE][dD][dQ][dA][dE][dE][dE][dA]-NH2) | 90.1% | 20.7% | –
